Source: patent US20180334436A1 (VIIV HEALTHCARE UK LIMITED, priority 2015, published 2018)

System: HIV
Test: MT4 assay (anti-HIV activity)
Format: cell-based
Conditions: Human immunodeficiency virus 1, 96 h, antiviral HIV activity in HTLV-1 transformed cell line MT-4; luciferase read 96 hours later; 10 point dose response
Method: Antiviral HIV activity and cytotoxicity values for compounds of the invention from Table 1 were measured in parallel in the HTLV-1 transformed cell line MT-4 based on the method previously described (Hazen et al., 2007, In vitro antiviral activity of the novel, tyrosyl-based human immunodeficiency virus (HIV) type 1 protease inhibitor brecanavir (GW640385) in combination with other antiretrovirals and against a panel of protease inhibitor-resistant HIV (Hazen et al., “In vitro antiviral activity of the novel, tyrosyl-based human immunodeficiency virus (HIV) type 1 protease inhibitor brecanavir (GW640385) in combination with other antiretrovirals and against a panel of protease inhibitor-resistant HIV”, Antimicrob. Agents Chemother. 2007, 51: 3147-3154; and Pauwels et al., “Sensitive and rapid assay on MT-4 cells for the detection of antiviral compounds against the AIDS virus”, J. of Virological Methods 1987, 16: 171-185).
Luciferase activity was measured 96 hours later by adding a cell titer glo (Promega, Madison, Wis.). Percent inhibition of cell protection data was plotted relative to no compound control. Under the same condition, cytotoxicity of the compounds was determined using cell titer Glo™ (Promega, Madison, Wis.). IC50s were determined from a 10 point dose response curve using 3-4-fold serial dilution for each compound, which spans a concentration range >1000 fold.
These values are plotted against the molar compound concentrations using the standard four parameter logistic equation:
y=((Vmax*x̂n)/(K̂n+x̂n))+Y2
Y2=minimum y n=slope factor
Vmax=maximum y x=compound concentration [M]

## Cc1ccc(-c2c(C)c3c(c(C)c2C(OC(C)(C)C)C(=O)O)CN(C(=O)C2CCCCC2)CC3)cc1 (centres unmarked) [Example 4, 2-(tert-Butoxy)-2-(2-(cyclohexanecarbonyl)-5,8-dimethyl-6-(p-tolyl)-1,2,3,4-tetrahydroisoquinolin-7-yl)acetic Acid]
  IC50: 323 nM

## Cc1c(-c2c(C)c3c(c(C)c2[C@H](OC(C)(C)C)C(=O)O)CCN(C(=O)C2CCCCC2)C3)cc(F)c2c1CCCO2 [Example 79, (S)-2-(tert-Butoxy)-2-((R)-2-(cyclohexanecarbonyl)-7-(8-fluoro-5-methylchroman-6-yl)-5,8-dimethyl-1,2,3,4-tetrahydroisoquinolin-6-yl)acetic Acid]
  IC50: 35 nM

## Cc1ccc(-c2c(C)c3c(c(C)c2[C@H](OC(C)(C)C)C(=O)O)CCN(C2CC4CCC(C4)C2)C3)cc1 (stereo partly drawn) [Example 74, (2S)-2-(2-(bicyclo[3.2.1]octan-3-yl)-5,8-dimethyl-7-(p-tolyl)-1,2,3,4-tetrahydroisoquinolin-6-yl)-2-(tert-butoxy)acetic Acid]
  IC50: 12 nM

## Cc1ccc(-c2c(C)c3c(c(C)c2[C@H](OC(C)(C)C)C(=O)O)CCN(C2CCC4CCC2C4)C3)cc1 (stereo partly drawn) [Example 60, (2S)-2-(2-(bicyclo[3.2.1]octan-2-yl)-5,8-dimethyl-7-(p-tolyl)-1,2,3,4-tetrahydroisoquinolin-6-yl)-2-(tert-butoxy)acetic Acid]
  IC50: 5 nM

## Cc1c(-c2c(C)c3c(c(C)c2[C@H](OC(C)(C)C)C(=O)O)CC(=O)N(C2CCCCC2)C3)cc(F)c2c1CCCO2 (atropisomer, axis not shown) [Example 104, (S)-2-(tert-butoxy)-2-((R)-2-cyclohexyl-7-(8-fluoro-5-methylchroman-6-yl)-5,8-dimethyl-3-oxo-1,2,3,4-tetrahydroisoquinolin-6-yl)acetic Acid]
  IC50: 2 nM

## Cc1ccc(-c2c(C)c3c(c(C)c2[C@H](OC(C)(C)C)C(=O)O)CCN(C2CCc4ccccc4C2)C3)cc1 (stereo partly drawn) [Example 77, (2S)-2-(tert-butoxy)-2-(5,8-dimethyl-2-(1,2,3,4-tetrahydronaphthalen-2-yl)-7-(p-tolyl)-1,2,3,4-tetrahydroisoquinolin-6-yl)acetic Acid]
  IC50: 40 nM

## Cc1ccc(-c2c(C)c3c(c(C)c2[C@H](OC(C)(C)C)C(=O)O)CCN(C2CC[C@@H](C)C2)C3)cc1 (stereo partly drawn) [Example 73, (2S)-2-(tert-butoxy)-2-(5,8-dimethyl-2-((3R)-3-methylcyclopentyl)-7-(p-tolyl)-1,2,3,4-tetrahydroisoquinolin-6-yl)acetic Acid]
  IC50: 42 nM

## Cc1ccc(-c2c(C)c3c(c(C)c2C(OC(C)(C)C)C(=O)O)CCN(C2CCCCC2)C3)cc1 (centres unmarked) [Example 21, 2-(tert-Butoxy)-2-(2-cyclohexyl-5,8-dimethyl-7-(p-tolyl)-1,2,3,4-tetrahydroisoquinolin-6-yl)acetic Acid]
  IC50: 27 nM

## Cc1c(-c2c(C)c3c(c(C)c2[C@H](OC(C)(C)C)C(=O)O)CCN(C2CCCCC2)C3)cc(F)c2c1CCCO2 (atropisomer, axis not shown; (M)) [Example 67, (2S)(M)-2-(tert-butoxy)-2-(2-cyclohexyl-7-(8-fluoro-5-methylchroman-6-yl)-5,8-dimethyl-1,2,3,4-tetrahydroisoquinolin-6-yl)acetic Acid]
  IC50: 5 nM

## Cc1ccc(-c2c(C)c3c(c(C)c2[C@H](OC(C)(C)C)C(=O)O)CCN(C2CCC[C@@H](C)C2)C3)cc1 (stereo partly drawn) [Example 72, (2S)-2-(tert-butoxy)-2-(5,8-dimethyl-2-((3R)-3-methylcyclohexyl)-7-(p-tolyl)-1,2,3,4-tetrahydroisoquinolin-6-yl)acetic Acid]
  IC50: 23 nM

## Cc1c(-c2c(C)c3c(c(C)c2[C@H](OC(C)(C)C)C(=O)O)CC(=O)N(C2CCOCC2)C3)cc(F)c2c1CCCO2 (atropisomer, axis not shown) [Example 108, (S)-2-(tert-butoxy)-2-((R)-7-(8-fluoro-5-methylchroman-6-yl)-5,8-dimethyl-3-oxo-2-(tetrahydro-2H-pyran-4-yl)-1,2,3,4-tetrahydroisoquinolin-6-yl)acetic Acid]
  IC50: 13 nM

## Cc1ccc(-c2c(C)c3c(c(C)c2[C@H](OC(C)(C)C)C(=O)O)CCN(C(=O)NC2CCCCC2)C3)cc1 [Example 35, (S)-2-(tert-Butoxy)-2-(2-(cyclohexylcarbamoyl)-5,8-dimethyl-7-(p-tolyl)-1,2,3,4-tetrahydroisoquinolin-6-yl)acetic Acid]
  IC50: 360 nM

## Cc1c(-c2c(C)c3c(c(C)c2[C@H](OC(C)(C)C)C(=O)O)CC(=O)N(C2CCC(C)(C)CC2)C3)cc(F)c2c1CCCO2 (atropisomer, axis not shown) [Example 105, (S)-2-(tert-butoxy)-2-((R)-2-(4,4-dimethylcyclohexyl)-7-(8-fluoro-5-methylchroman-6-yl)-5,8-dimethyl-3-oxo-1,2,3,4-tetrahydroisoquinolin-6-yl)acetic Acid]
  IC50: 2 nM

## Cc1ccc(-c2c(C)c3c(c(C)c2C(OC(C)(C)C)C(=O)O)CN(CC(=O)N2CCCCC2)CC3)cc1 (centres unmarked) [Example 7, 2-(tert-Butoxy)-2-(5,8-dimethyl-2-(2-oxo-2-(piperidin-1-yl)ethyl)-6-(p-tolyl)-1,2,3,4-tetrahydroisoquinolin-7-yl)acetic Acid]
  IC50: 418 nM

## Cc1ccc(-c2c(C)c3c(c(C)c2[C@H](OC(C)(C)C)C(=O)O)CCN(C2CCCC2)C3)cc1 [Example 32, (S)-2-(tert-Butoxy)-2-(2-cyclopentyl-5,8-dimethyl-7-(p-tolyl)-1,2,3,4-tetrahydroisoquinolin-6-yl)acetic Acid]
  IC50: 96 nM

## Cc1ccc(-c2c(C)c3c(c(C)c2[C@H](OC(C)(C)C)C(=O)O)CCN(C(=O)C2CCc4ccccc4C2)C3)cc1 (stereo partly drawn) [Example 78, (2S)-2-(tert-butoxy)-2-(5,8-dimethyl-2-(1,2,3,4-tetrahydronaphthalene-2-carbonyl)-7-(p-tolyl)-1,2,3,4-tetrahydroisoquinolin-6-yl)acetic Acid]
  IC50: 109 nM

## Cc1ccc(-c2c(C)c3c(c(C)c2[C@H](OC(C)(C)C)C(=O)O)CCN(C2CCC(F)(F)CC2)C3)cc1 [Example 56, (S)-2-(tert-butoxy)-2-(2-(4,4-difluorocyclohexyl)-5,8-dimethyl-7-(p-tolyl)-1,2,3,4-tetrahydroisoquinolin-6-yl)acetic Acid]
  IC50: 14 nM

## Cc1ccc(-c2c(C)c3c(c(C)c2C(OC(C)(C)C)C(=O)O)CN(S(=O)(=O)c2cccc(F)c2)CC3)cc1 (centres unmarked) [Example 11, 2-(tert-Butoxy)-2-(2-((3-fluorophenyl)sulfonyl)-5,8-dimethyl-6-(p-tolyl)-1,2,3,4-tetrahydroisoquinolin-7-yl)acetic Acid]
  IC50: 817 nM

## Cc1c(-c2c(C)c3c(c(C)c2[C@H](OC(C)(C)C)C(=O)O)CCN(S(=O)(=O)C2CCCCC2)C3)ccc2c1NCCO2 (atropisomer, axis not shown; (M)) [Example 95, (S)(M)-2-(tert-butoxy)-2-(2-(cyclohexylsulfonyl)-5,8-dimethyl-7-(5-methyl-3,4-dihydro-2H-benzo[b][1,4]oxazin-6-yl)-1,2,3,4-tetrahydroisoquinolin-6-yl)acetic Acid]
  IC50: 9 nM

## COc1c(F)cccc1C(=O)N1CCc2c(C)c([C@H](OC(C)(C)C)C(=O)O)c(-c3ccc(C)cc3)c(C)c2C1 [Example 26, (S)-2-(tert-Butoxy)-2-(2-(3-fluoro-2-methoxybenzoyl)-5,8-dimethyl-7-(p-tolyl)-1,2,3,4-tetrahydroisoquinolin-6-yl)acetic Acid]
  IC50: 61 nM

## Cc1ccc(-c2c(C)c3c(c(C)c2C(OC(C)(C)C)C(=O)O)CN(C(=O)N2CCCCC2)CC3)cc1 (centres unmarked) [Example 9, 2-(tert-Butoxy)-2-(5,8-dimethyl-2-(piperidine-1-carbonyl)-6-(p-tolyl)-1,2,3,4-tetrahydroisoquinolin-7-yl)acetic Acid]
  IC50: 38 nM

## Cc1ccc(-c2c(C)c3c(c(C)c2[C@H](OC(C)(C)C)C(=O)O)CCN(C2CCCCCC2)C3)cc1 [Example 50, (S)-2-(tert-butoxy)-2-(2-cycloheptyl-5,8-dimethyl-7-(p-tolyl)-1,2,3,4-tetrahydroisoquinolin-6-yl)acetic Acid]
  IC50: 5 nM

## Cc1ccc(-c2c(C)c3c(c(C)c2[C@H](OC(C)(C)C)C(=O)O)CCN(Cc2cccc(F)c2)C3)cc1 [Example 30, (S)-2-(tert-Butoxy)-2-(2-(3-fluorobenzyl)-5,8-dimethyl-7-(p-tolyl)-1,2,3,4-tetrahydroisoquinolin-6-yl)acetic Acid]
  IC50: 382 nM

## Cc1c(-c2c(C)c3c(c(C)c2[C@H](OC(C)(C)C)C(=O)O)CC(=O)N(CC2CCOCC2)C3)cc(F)c2c1CCCO2 (atropisomer, axis not shown) [Example 113]
  IC50: 14 nM

## Cc1ccc(-c2c(C)c3c(c(C)c2[C@H](OC(C)(C)C)C(=O)O)CCN(C(=O)C2CCCCCC2)C3)cc1 [Example 75, (S)-2-(tert-butoxy)-2-(2-(cycloheptanecarbonyl)-5,8-dimethyl-7-(p-tolyl)-1,2,3,4-tetrahydroisoquinolin-6-yl)acetic Acid]
  IC50: 51 nM

## Cc1ccc(-c2c(C)c3c(c(C)c2[C@H](OC(C)(C)C)C(=O)O)CCN(C(=O)c2ccccc2)C3)cc1 [Example 48, (S)-2-(2-benzoyl-5,8-dimethyl-7-(p-tolyl)-1,2,3,4-tetrahydroisoquinolin-6-yl)-2-(tert-butoxy)acetic Acid]
  IC50: 325 nM
